Experimental data taken from patent US20160045505A1, “COMPOUNDS AND COMPOSITIONS FOR THE TREATMENT OF PARASITIC DISEASES” (NOVARTIS AG, priority 2013, published 2016).
Where two headings read alike, the source gives them in different places.

Columns and labels:
[1] = tested on: Leishmania donovani axenic amastigote parasites; assay: Leishmania donovani axenic amastigote proliferation assay (Cell TiterGlo luminescence, 2 day incubation); format: cell-based; conditions: Leishmania donovani, read-out: L. donovani amastigotes EC50
[2] = tested on: Trypanosoma brucei Lister 427 strain, bloodstream form; assay: Assay for proliferation of kinetoplastid parasite Trypanosoma brucei (Cell Titer Glo, 48 hours); format: cell-based; conditions: Trypanosoma brucei, T. brucei Lister 427 bloodstream form, read-out: T. brucei EC50
From the text: Assay for Proliferation of Kinetoplastid Parasite Trypanosoma brucei.
The proliferation is quantified by the addition of Cell Titer Glo (Promega®) a luminescent cell viability assay that measures the number of viable cells in culture based on the quantification of cellular ATP amount, which is an indicator of metabolically active cells.
The following assay illustrates the invention without in any way limiting the scope of the invention. This parasite proliferation assay measures the increase in parasite growth using an assay that measures ATP activity, Cell Titer Glo®.
Trypanosoma brucei Lister 427 strain is grown in HMI-9 Trypanosome media for T. brucei bloodstream form. 30 μl of HMI-9 media is dispensed into 384 well assay plates. 200 nl of compounds of the invention (in DMSO), including anti-trypanosome controls (Pentamidine and suramin), are then transferred into the assay plates, as well as DMSO alone to serve as a negative control for inhibition. Then 25 μl of a suspension of T. brucei culture in HMI-9 media is dispensed into the assay plates. The final concentration of parasites in culture corresponds to 1.7% of 0.5 uM ATP activity with Cell Titer Glo® in HMI-9 media. The plates are placed in a 37° C. incubator for 48 hours in an atmospheric environment containing 5% CO2. 40 μl of Cell Titer Glo® is dispensed into the plates. The plates are then read for luminescence. The percentage inhibition of 50%, EC50, is calculated for each compound.

[3] = tested on: L. donovani HU3 strain in mouse peritoneal macrophages; assay: Assay for proliferation of Leishmania parasites in infected mouse peritoneal macrophages (SybrGreen staining, high-content imaging, 5 days); format: cell-based, Leishmania donovani; conditions: Leishmania donovani, Peritoneal macrophage, L. donovani in mouse peritoneal macrophages, read-out: L. donovani Macrophage EC50
[4] = axenic amastigotes, inhibition of proliferation

Compound	EC50 [1, 4]	EC50 ([2]; inhibition of proliferation)	EC50 ([3]; inhibition of proliferation)	EC50 ([1]; L. donovani axenic amastigotes)	EC50 [2]	EC50 [3]
CON(C)C(=O)Nc1ccc(F)c(-c2cn3cc(NC(=O)OC(C)C)cnc3n2)c1 [Compound 221]	249 nM	177 nM	1060 nM			
CC(C)OC(=O)Nc1cnc2nc(-c3cc(NC(=O)N4CCC4)ccc3F)cn2c1 [Compound 226]	42 nM	37 nM	384 nM			
CC(C)OC(=O)Nc1cnc2nc(-c3cc(NC(=O)N4CC(O)C4)ccc3F)cn2c1 [Compound 288]	7690 nM	33800 nM	> 50000 nM			
CC(C)OC(=O)Nc1cnc2nc(-c3cc(NC(=O)N4CC(C#N)C4)ccc3F)cn2c1 [Compound 290]	3140 nM	12600 nM	> 45700 nM			
CC(C)OC(=O)Nc1cnc2nc(-c3cc(NC(=O)N4CC(Cl)C4)ccc3F)cn2c1 [Compound 291]	390 nM	206 nM	968 nM			
CS(=O)(=O)Nc1ccc(F)c(-c2cn3cc(Br)cnc3n2)c1 [Compound 316, N-(3-(6-bromoimidazo[1,2-a]pyrimidin-2-yl)-4-Fluorophenyl)methanesulfonamide]	> 25000 nM	> 50000 nM	> 50000 nM			
Cc1nc(C)c(C(=O)Nc2ccc(F)c(-c3cn4cc(C5CC5)cnc4n3)c2)o1 [Compound 339, N-(3-(6-cyclopropylimidazo[1,2-a]pyrimidin-2-yl)-4-fluorophenyl)-2,4-dimethyloxazole-5-carboxamide]	85 nM	80 nM	272 nM			
Cc1nc(C)c(C(=O)Nc2ccc(F)c(-c3cn4cc(-c5ccc(CCO)cn5)cnc4n3)c2)o1 [Compound 350]	16 nM	53 nM	128 nM			
Cc1nc(C)c(C(=O)Nc2ccc(F)c(-c3cn4cc(-c5sc(C)nc5C)cnc4n3)c2)o1 [Compound 365]	102 nM	59 nM	200 nM			
Cc1cccnc1-c1cnc2nc(-c3cc(NC(=O)N4CC(F)(F)C4)ccc3F)cn2c1 [Compound 403]				63 nM	55 nM	181 nM
Cc1cccnc1-c1cnc2nc(-c3cc(NC(=O)N4CC[C@@H](F)C4)ccc3F)cn2c1 [Compound 410]				22 nM	17 nM	65 nM
O=C(Nc1cnc2nc(-c3cc(NC(=O)N4CCCC4)ccc3F)cn2c1)OCc1ccccc1 [Compound 512, benzyl (2-(2-fluoro-5-(pyrrolidine-1-carboxamido)phenyl)imidazo[1,2-a]pyrimidin-6-yl)carbamate]				211 nM	76 nM	2990 nM
O=C(Nc1cnc2nc(-c3ccc(F)c(NC(=O)N4CCCC4)c3)cn2c1)OCc1ccccc1 [Compound 513, Benzyl (2-(4-fluoro-3-(pyrrolidine-1-carboxamido)phenyl)imidazo[1,2-a]pyrimidin-6-yl)carbamate]				958 nM	426 nM	1580 nM
O=C(Nc1ccc(F)c(-c2cn3cc(F)cnc3n2)c1)N1CCCC1 [Compound 514]				641 nM	84 nM	1640 nM
CN1CCN(C(=O)Nc2ccc(F)c(-c3cn4cc(Br)cnc4n3)c2)CC1 [Compound 516]				> 25000 nM	> 50000 nM	21000 nM
COC(=O)Nc1ccc(F)c(-c2cn3cc(Br)cnc3n2)c1 [Compound 517]				4590 nM	1430 nM	> 50000 nM
CC(C)Nc1ccc(F)c(-c2cn3cc(NC(=O)OC(C)C)cnc3n2)c1 [Compound 523]				> 25000 nM	> 50000 nM	37700 nM
CC(=O)Nc1ccc(F)c(-c2cn3cc(NC(=O)OC(C)(C)C)cnc3n2)c1 [Compound 529, tert-butyl (2-(5-acetamido-2-fluorophenyl)imidazo[1,2-a]pyrimidin-6-yl)carbamate]				7230 nM	3260 nM	> 50000 nM
CC(C)(C)OC(=O)Nc1cnc2nc(-c3cc(NC=O)ccc3F)cn2c1 [Compound 532, tert-butyl (2-(2-fluoro-5-formamidophenyl)imidazo[1,2-a]pyrimidin-6-yl)carbamate]				13900 nM	17800 nM	> 50000 nM
CN(C(=O)N1CCCC1)c1ccc(F)c(-c2cn3cc(N)cnc3n2)c1 [Compound 558]				> 25000 nM	17200 nM	> 50000 nM
